From ChEMBL document CHEMBL3758169, “4-Aminoindazolyl-dihydrofuro[3,4-d]pyrimidines as non-covalent inhibitors of mutant epidermal growth factor receptor tyrosine kinase” (Bioorg Med Chem Lett, 2016)

Experiments:
[1] = molecular target: Ribosomal protein S6 kinase alpha-4 (Homo sapiens) (UniProt O75676); assay: Inhibition of MSK2 (unknown origin) at 100 nM
[2] = molecular target: SRSF protein kinase 3 (Homo sapiens) (UniProt Q9UPE1); assay: Inhibition of MSSK1 (unknown origin) at 100 nM
[3] = molecular target: Serine/threonine-protein kinase Nek6 (Homo sapiens) (UniProt Q9HC98); assay: Inhibition of NEK6 (unknown origin) at 100 nM
[4] = molecular target: Serine/threonine-protein kinase PAK 1 (Homo sapiens) (UniProt Q13153); assay: Inhibition of PAK1 (unknown origin) at 100 nM
[5] = molecular target: Phosphatidylinositol 4-phosphate 3-kinase C2 domain-containing subunit alpha (Homo sapiens) (UniProt O00443); assay: Inhibition of PI3KC2A (unknown origin) at 100 nM
[6] = molecular target: Phosphatidylinositol 4-phosphate 3-kinase C2 domain-containing subunit beta (Homo sapiens) (UniProt O00750); assay: Inhibition of PI3KC2b (unknown origin) at 100 nM
[7] = molecular target: Phosphatidylinositol 3-kinase catalytic subunit type 3 (Homo sapiens) (UniProt Q8NEB9); assay: Inhibition of PI3KC3/hVPS34 (unknown origin) at 100 nM
Chain of Phosphatidylinositol 3-kinase catalytic subunit type 3 (Homo sapiens) (Q8NEB9 whole entry): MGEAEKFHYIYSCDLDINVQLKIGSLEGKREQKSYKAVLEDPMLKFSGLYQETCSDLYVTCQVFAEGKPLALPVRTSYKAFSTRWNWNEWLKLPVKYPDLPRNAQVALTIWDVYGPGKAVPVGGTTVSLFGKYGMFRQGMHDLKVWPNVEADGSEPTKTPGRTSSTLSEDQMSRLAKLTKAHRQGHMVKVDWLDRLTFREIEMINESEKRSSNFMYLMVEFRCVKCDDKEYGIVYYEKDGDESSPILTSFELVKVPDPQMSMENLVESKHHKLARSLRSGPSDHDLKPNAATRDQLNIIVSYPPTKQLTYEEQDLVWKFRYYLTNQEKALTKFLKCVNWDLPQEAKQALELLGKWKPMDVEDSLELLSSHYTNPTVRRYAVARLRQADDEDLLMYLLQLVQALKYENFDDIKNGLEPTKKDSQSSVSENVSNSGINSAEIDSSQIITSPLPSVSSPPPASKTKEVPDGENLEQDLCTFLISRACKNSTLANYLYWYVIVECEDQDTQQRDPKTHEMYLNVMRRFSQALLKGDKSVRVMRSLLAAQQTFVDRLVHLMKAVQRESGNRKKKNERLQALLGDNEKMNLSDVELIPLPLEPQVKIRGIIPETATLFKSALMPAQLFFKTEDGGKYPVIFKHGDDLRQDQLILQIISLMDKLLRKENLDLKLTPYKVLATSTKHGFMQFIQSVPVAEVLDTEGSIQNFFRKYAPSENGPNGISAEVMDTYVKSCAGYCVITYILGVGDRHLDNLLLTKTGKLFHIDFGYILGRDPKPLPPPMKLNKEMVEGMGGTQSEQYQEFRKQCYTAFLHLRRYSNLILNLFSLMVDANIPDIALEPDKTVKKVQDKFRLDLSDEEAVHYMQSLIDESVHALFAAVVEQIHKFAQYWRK

[8] = molecular target: Phosphatidylinositol 4-kinase beta (Homo sapiens) (UniProt Q9UBF8); assay: Inhibition of PI4Kb (unknown origin) at 100 nM
[9] = molecular target: Protein kinase C zeta type (Homo sapiens) (UniProt Q05513); assay: Inhibition of PKCzeta (unknown origin) at 100 nM
Chain of Protein kinase C zeta type (Homo sapiens) (Q05513 whole entry): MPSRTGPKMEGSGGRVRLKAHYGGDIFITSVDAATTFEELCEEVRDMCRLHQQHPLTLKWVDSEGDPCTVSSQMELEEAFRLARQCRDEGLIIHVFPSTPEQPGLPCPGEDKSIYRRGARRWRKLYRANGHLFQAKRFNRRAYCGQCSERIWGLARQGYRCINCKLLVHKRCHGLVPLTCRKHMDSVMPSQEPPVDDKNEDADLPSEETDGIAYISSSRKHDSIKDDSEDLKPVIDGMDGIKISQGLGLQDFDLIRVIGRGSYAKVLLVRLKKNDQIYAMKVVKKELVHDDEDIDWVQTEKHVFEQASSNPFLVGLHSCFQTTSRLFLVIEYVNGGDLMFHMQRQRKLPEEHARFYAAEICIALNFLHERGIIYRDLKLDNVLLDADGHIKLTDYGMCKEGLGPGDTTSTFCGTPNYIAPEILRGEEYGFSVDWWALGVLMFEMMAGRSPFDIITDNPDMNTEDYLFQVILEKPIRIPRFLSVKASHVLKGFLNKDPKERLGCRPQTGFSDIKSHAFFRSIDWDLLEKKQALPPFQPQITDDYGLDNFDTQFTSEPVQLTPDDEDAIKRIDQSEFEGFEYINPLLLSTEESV

[10] = molecular target: Serine/threonine-protein kinase D2 (Homo sapiens) (UniProt Q9BZL6); assay: Inhibition of PKD2 (unknown origin) at 100 nM
[11] = molecular target: 5'-AMP-activated protein kinase catalytic subunit alpha-2 (Homo sapiens) (UniProt P54646); assay: Inhibition of PRKAA2 (unknown origin) at 100 nM
[12] = molecular target: Phosphorylase b kinase gamma catalytic chain, skeletal muscle/heart isoform (Homo sapiens) (UniProt Q16816); assay: Inhibition of PHKgamma1 (unknown origin) at 100 nM
[13] = molecular target: Phosphorylase b kinase gamma catalytic chain, liver/testis isoform (Homo sapiens) (UniProt P15735); assay: Inhibition of PHKgamma2 (unknown origin) at 100 nM
[14] = molecular target: Proto-oncogene tyrosine-protein kinase ROS (Homo sapiens) (UniProt P08922); assay: Inhibition of ROS (unknown origin) at 100 nM
[15] = molecular target: Serine/threonine-protein kinase 33 (Homo sapiens) (UniProt Q9BYT3); assay: Inhibition of STK33 (unknown origin) at 100 nM
[16] = molecular target: Serine/threonine-protein kinase TAO3 (Homo sapiens) (UniProt Q9H2K8); assay: Inhibition of TAO3 (unknown origin) at 100 nM
[17] = molecular target: TGF-beta receptor type-1 (Homo sapiens) (UniProt P36897); assay: Inhibition of TGFBR1 (unknown origin) at 100 nM
[18] = molecular target: NT-3 growth factor receptor (Homo sapiens) (UniProt Q16288); assay: Inhibition of TRKC (unknown origin) at 100 nM
[19] = molecular target: Serine/threonine-protein kinase WNK2 (Homo sapiens) (UniProt Q9Y3S1); assay: Inhibition of WNK2 (unknown origin) at 100 nM
[20] = molecular target: Mitogen-activated protein kinase kinase kinase 20 (Homo sapiens) (UniProt Q9NYL2); assay: Inhibition of ZAK (unknown origin) at 100 nM
[21] = molecular target: Mitogen-activated protein kinase 11 (Homo sapiens) (UniProt Q15759); assay: Inhibition of p38beta(unknown origin) at 100 nM
[22] = molecular target: Megakaryocyte-associated tyrosine-protein kinase (Homo sapiens) (UniProt P42679); assay: Inhibition of Hyl (unknown origin) at 100 nM
[23] = molecular target: Activin receptor type-1B (Homo sapiens) (UniProt P36896); assay: Inhibition of ACVR1B (unknown origin) at 100 nM
[24] = molecular target: Aurora kinase A (Homo sapiens) (UniProt O14965); assay: Inhibition of Aurora A (unknown origin) at 100 nM
Chain of Aurora kinase A (Homo sapiens) (O14965 whole entry): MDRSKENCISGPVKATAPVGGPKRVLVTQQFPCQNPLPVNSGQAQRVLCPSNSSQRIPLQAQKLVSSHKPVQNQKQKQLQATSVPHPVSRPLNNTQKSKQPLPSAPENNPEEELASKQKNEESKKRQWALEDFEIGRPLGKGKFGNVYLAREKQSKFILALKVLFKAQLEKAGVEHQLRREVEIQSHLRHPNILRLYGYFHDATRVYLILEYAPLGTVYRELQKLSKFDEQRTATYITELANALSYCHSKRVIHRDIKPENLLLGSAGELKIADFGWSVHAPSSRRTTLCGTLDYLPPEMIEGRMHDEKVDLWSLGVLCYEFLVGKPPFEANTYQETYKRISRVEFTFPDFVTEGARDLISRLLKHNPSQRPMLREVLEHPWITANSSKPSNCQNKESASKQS

[25] = molecular target: Aurora kinase C (Homo sapiens) (UniProt Q9UQB9); assay: Inhibition of Aurora C (unknown origin) at 100 nM
[26] = molecular target: Tyrosine-protein kinase Blk (Homo sapiens) (UniProt P51451); assay: Inhibition of BLK (unknown origin) at 100 nM
Chain of Tyrosine-protein kinase Blk (Homo sapiens) (P51451 2-505 limits assumed): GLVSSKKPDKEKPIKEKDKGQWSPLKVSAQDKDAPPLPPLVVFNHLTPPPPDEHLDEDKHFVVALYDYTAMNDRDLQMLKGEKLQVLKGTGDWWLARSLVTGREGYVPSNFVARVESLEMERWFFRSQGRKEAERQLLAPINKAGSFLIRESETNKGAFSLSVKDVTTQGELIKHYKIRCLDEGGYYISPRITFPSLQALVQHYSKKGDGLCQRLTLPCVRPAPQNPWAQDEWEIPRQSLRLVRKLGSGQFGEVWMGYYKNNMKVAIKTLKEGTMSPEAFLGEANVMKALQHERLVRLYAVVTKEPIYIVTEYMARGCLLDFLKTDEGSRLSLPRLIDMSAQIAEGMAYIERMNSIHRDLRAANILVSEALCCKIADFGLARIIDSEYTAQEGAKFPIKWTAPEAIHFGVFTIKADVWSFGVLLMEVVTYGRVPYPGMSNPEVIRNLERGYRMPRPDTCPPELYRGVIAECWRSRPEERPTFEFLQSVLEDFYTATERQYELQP

[27] = molecular target: Calcium/calmodulin-dependent protein kinase kinase 1 (Homo sapiens) (UniProt Q8N5S9); assay: Inhibition of CaMKK1 (unknown origin) at 100 nM
[28] = molecular target: Casein kinase I isoform gamma-3 (Homo sapiens) (UniProt Q9Y6M4); assay: Inhibition of CK1gamma3 (unknown origin) at 100 nM
[29] = molecular target: Casein kinase II subunit alpha (Homo sapiens) (UniProt P68400); assay: Inhibition of CK2alpha1 (unknown origin) at 100 nM
[30] = molecular target: Dual specificity protein kinase CLK2 (Homo sapiens) (UniProt P49760); assay: Inhibition of CLK2 (unknown origin) at 100 nM
[31] = molecular target: Tyrosine-protein kinase CSK (Homo sapiens) (UniProt P41240); assay: Inhibition of CSK (unknown origin) at 100 nM
[32] = molecular target: Calcium/calmodulin-dependent protein kinase type II subunit delta (Homo sapiens) (UniProt Q13557); assay: Inhibition of CamKIIdelta (unknown origin) at 100 nM
[33] = molecular target: Death-associated protein kinase 1 (Homo sapiens) (UniProt P53355); assay: Inhibition of DAPK1 (unknown origin) at 100 nM
Chain of Death-associated protein kinase 1 (Homo sapiens) (P53355 whole entry, looked up): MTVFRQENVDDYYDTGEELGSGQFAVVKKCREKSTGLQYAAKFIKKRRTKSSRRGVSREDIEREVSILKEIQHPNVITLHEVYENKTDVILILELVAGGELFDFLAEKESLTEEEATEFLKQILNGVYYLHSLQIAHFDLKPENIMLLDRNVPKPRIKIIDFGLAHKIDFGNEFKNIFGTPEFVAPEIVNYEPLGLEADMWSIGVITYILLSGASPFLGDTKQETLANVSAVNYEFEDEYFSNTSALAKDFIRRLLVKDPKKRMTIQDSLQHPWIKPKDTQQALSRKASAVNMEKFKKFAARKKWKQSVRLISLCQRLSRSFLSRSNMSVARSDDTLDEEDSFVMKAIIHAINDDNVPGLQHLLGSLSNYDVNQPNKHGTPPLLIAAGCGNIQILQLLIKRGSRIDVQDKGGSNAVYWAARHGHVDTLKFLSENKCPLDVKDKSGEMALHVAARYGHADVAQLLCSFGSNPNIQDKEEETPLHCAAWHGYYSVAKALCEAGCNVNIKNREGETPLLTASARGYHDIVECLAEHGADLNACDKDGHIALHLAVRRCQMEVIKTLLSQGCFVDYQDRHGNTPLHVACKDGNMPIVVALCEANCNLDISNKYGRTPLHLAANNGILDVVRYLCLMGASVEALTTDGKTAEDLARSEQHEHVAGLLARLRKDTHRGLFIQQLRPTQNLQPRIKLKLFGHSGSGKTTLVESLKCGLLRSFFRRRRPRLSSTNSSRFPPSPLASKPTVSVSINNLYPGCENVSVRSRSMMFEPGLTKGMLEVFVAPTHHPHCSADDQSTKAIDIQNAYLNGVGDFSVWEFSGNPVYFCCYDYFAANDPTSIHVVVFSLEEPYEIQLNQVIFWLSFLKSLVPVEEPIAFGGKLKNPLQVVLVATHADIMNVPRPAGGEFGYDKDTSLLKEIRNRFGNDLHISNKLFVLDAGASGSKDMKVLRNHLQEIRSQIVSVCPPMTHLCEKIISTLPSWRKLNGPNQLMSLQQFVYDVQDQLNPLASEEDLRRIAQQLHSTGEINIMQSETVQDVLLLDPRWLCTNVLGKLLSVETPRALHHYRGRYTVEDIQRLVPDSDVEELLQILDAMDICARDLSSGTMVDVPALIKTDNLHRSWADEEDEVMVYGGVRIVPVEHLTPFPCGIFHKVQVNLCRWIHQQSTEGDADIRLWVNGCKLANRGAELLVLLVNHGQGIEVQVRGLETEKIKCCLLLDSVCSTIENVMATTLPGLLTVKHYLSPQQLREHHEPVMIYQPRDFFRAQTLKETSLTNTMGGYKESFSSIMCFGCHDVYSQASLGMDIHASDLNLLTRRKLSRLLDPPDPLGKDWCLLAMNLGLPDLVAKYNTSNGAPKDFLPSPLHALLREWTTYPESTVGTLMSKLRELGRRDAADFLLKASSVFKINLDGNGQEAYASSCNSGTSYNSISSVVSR

[34] = molecular target: Serine/threonine-protein kinase DCLK2 (Homo sapiens) (UniProt Q8N568); assay: Inhibition of DCAMKL2 (unknown origin) at 100 nM
[35] = molecular target: Ephrin type-A receptor 5 (Homo sapiens) (UniProt P54756); assay: Inhibition of EPHA5 (unknown origin) at 100 nM
[36] = molecular target: Ephrin type-B receptor 1 (Homo sapiens) (UniProt P54762); assay: Inhibition of EPHB1 (unknown origin) at 100 nM
[37] = molecular target: Ephrin type-B receptor 3 (Homo sapiens) (UniProt P54753); assay: Inhibition of EPHB3 (unknown origin) at 100 nM
Chain of Ephrin type-B receptor 3 (Homo sapiens) (P54753 whole entry): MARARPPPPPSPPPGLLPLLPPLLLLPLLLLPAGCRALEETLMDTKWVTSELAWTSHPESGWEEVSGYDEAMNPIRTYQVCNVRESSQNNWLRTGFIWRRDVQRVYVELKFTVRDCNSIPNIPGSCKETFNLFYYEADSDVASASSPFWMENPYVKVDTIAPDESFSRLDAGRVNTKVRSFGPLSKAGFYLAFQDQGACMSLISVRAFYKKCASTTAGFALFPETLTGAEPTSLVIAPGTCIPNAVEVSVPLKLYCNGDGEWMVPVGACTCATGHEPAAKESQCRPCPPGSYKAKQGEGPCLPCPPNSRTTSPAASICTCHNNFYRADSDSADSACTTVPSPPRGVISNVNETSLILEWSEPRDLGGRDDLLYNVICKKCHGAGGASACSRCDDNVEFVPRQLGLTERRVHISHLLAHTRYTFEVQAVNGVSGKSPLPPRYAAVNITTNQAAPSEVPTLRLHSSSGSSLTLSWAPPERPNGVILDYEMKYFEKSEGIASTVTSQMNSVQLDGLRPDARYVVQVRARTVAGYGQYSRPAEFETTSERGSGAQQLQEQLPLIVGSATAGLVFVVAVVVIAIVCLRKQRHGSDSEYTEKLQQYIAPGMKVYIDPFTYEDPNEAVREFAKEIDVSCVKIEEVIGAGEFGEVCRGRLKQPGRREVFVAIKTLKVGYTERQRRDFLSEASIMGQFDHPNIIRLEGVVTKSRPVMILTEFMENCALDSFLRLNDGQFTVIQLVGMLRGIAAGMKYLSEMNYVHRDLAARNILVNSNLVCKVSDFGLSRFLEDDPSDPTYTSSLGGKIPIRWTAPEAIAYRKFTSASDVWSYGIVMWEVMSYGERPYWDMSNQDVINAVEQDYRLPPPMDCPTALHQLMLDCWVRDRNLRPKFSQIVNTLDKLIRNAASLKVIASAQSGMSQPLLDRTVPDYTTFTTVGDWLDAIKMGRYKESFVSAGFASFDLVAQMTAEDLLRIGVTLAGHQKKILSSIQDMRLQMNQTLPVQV

[38] = molecular target: Receptor tyrosine-protein kinase erbB-4 (Homo sapiens) (UniProt Q15303); assay: Inhibition of ERBB4 (unknown origin) at 100 nM
[39] = molecular target: Beta-adrenergic receptor kinase 1 (Homo sapiens) (UniProt P25098); assay: Inhibition of GRK2 (unknown origin) at 100 nM
[40] = molecular target: Tyrosine-protein kinase JAK3 (Homo sapiens) (UniProt P52333); assay: Inhibition of JAK3 (unknown origin) at 100 nM
[41] = tested on: Mast/stem cell growth factor receptor Kit (Homo sapiens), P10721 [T670I]; assay: Inhibition of KIT T670I mutant (unknown origin) at 100 nM
[42] = tested on: Mast/stem cell growth factor receptor Kit (Homo sapiens), P10721 [V654A]; assay: Inhibition of KIT V654A mutant (unknown origin) at 100 nM

- inhibition [1]: 15.2%
- inhibition [2]: -3.2%
- inhibition [3]: 9.9%
- inhibition [4]: -4.1%
- inhibition [5]: 2.9%
- inhibition [6]: 18.8%
- inhibition [7]: 7.4%
- inhibition [8]: 10.1%
- inhibition [9]: 7.2%
- inhibition [10]: 7.8%
- inhibition [11]: 10.9%
- inhibition [12]: 8.5%
- inhibition [13]: -2.9%
- inhibition [14]: 11.4%
- inhibition [15]: 4.2%
- inhibition [16]: 6.2%
- inhibition [17]: 97.9%
- inhibition [18]: 14.5%
- inhibition [19]: 3.4%
- inhibition [20]: 11.4%
- inhibition [21]: 8.7%
- inhibition [22]: 0.8%
- inhibition [23]: 70.7%
- inhibition [24]: -5.4%
- inhibition [25]: 1.2%
- inhibition [26]: 67.7%
- inhibition [27]: 7%
- inhibition [28]: 1.8%
- inhibition [29]: 1.4%
- inhibition [30]: -3.6%
- inhibition [31]: 3.7%
- inhibition [32]: -4.2%
- inhibition [34]: 1.8%
- inhibition [35]: 15.7%
- inhibition [36]: 22%
- inhibition [37]: 20.1%
- inhibition [38]: 89.9%
- inhibition [39]: -0.6%
- inhibition [40]: 2.7%
- inhibition [41]: 17.9%
- inhibition [42]: 1.1%
SMILES: CC1(C)OCc2c(Nc3n[nH]c4ccccc34)nc(-c3cn[nH]c3)nc21
- inhibition [33]: 2.2%
